The source of these data is the supplement of paper PMC10307832.

What all share (experiment): relative viability (nuclei count vs DMSO), 5 days (fraction); higher = more cells survive
Compound in assay [1]: C1=CC2=NC=CN=C2C=C1/C=C/3\C(=O)NC(=O)S3 + CS(=O)(=O)N1CCN(Cc2cc3nc(-c4cccc5[nH]ncc45)nc(N4CCOCC4)c3s2)CC1 [Pictilisib] (partner 1 µM)
In a few lines: (§1)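 Nuclei were stained with Hoechst during a one-step fixation (final 0.05% Triton X-100, 1% formaldehyde, 1 ug/ml Hoechst) carried out 5 days after dosing, then counted on 4× images. The cells, lung cancer lines in 1536-well plates, had been dosed by pin tool the day after seeding with one drug alone or a fixed anchor-drug dose plus five library-drug doses (not always all listed) in √10 steps. Relative viability is the nuclei count in treated wells divided by that in vehicle wells, and each value is the median of duplicate plates.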

Compound in assay [2]: C1=CC2=NC=CN=C2C=C1/C=C/3\C(=O)NC(=O)S3 + CC(C)C[C@H](NC(=O)[C@H](Cc1ccccc1)NC(=O)c1cnccn1)B(O)O [Bortezomib] (partner 0.002 µM)
In a few lines:
as §1

Compound in assay [3]: C1=CC2=NC=CN=C2C=C1/C=C/3\C(=O)NC(=O)S3 + O=C(c1cc(Cc2n[nH]c(=O)c3ccccc23)ccc1F)N1CCN(C(=O)C2CC2)CC1 [Olaparib] (partner 8 µM)
The method, boiled down:
as §1

Compound in the assay “BGJ398 + Dasatinib”: CCN1CCN(c2ccc(Nc3cc(N(C)C(=O)Nc4c(Cl)c(OC)cc(OC)c4Cl)ncn3)cc2)CC1 [BGJ398] + Cc1nc(Nc2ncc(C(=O)Nc3c(C)cccc3Cl)s2)cc(N2CCN(CCO)CC2)n1 [Dasatinib] (partner 0.075 µM)
The method, boiled down:
as §1

Regarding COR-L 105, the relative viability in assay [1] (first compound 0.02 µM) worked out at 0.396; in assay [1] (first compound 0.06325 µM), 0.435; in assay [1] (first compound 0.2 µM), 0.377; in assay [1] (first compound 0.6325 µM) it was 0.398; in assay [1] (first compound 2 µM) it was 0.337; in assay [2] (first compound 0.02 µM), 0.717. In addition, the relative viability was found to be 0.887 in assay [2] (first compound 0.06325 µM); 0.864 in assay [2] (first compound 0.2 µM); 0.759 in assay [2] (first compound 0.6325 µM); 0.755 in assay [2] (first compound 2 µM); 0.674 in assay [3] (first compound 0.02 µM); 0.711 in assay [3] (first compound 0.06325 µM). The relative viability in assay [3] (first compound 0.2 µM) is 0.701; in assay [3] (first compound 0.6325 µM) it was 0.819; in assay [3] (first compound 2 µM), 0.723; with BGJ398 + Dasatinib (first compound 0.01 µM) it was 0.275; with BGJ398 + Dasatinib (first compound 0.03162 µM), 0.279; with BGJ398 + Dasatinib (first compound 0.1 µM) it was 0.371. For the same cell line, the results for the relative viability in the assay with BGJ398 + Dasatinib (first compound 0.3162 µM) and with BGJ398 + Dasatinib (first compound 1 µM) were 0.307 and 0.276, respectively.

Calu-6: the relative viability is 0.923 in assay [1] (first compound 0.02 µM); 1.15 in assay [1] (first compound 0.06325 µM); 1.04 in assay [1] (first compound 0.2 µM); 0.989 in assay [1] (first compound 0.6325 µM); 0.973 in assay [1] (first compound 2 µM); 1.03 in assay [2] (first compound 0.02 µM). For the same cell line, the relative viability amounted to 1.1 in assay [2] (first compound 0.06325 µM); 1.22 in assay [2] (first compound 0.2 µM); 1.1 in assay [2] (first compound 0.6325 µM); 0.98 in assay [2] (first compound 2 µM); 0.602 in assay [3] (first compound 0.02 µM); 0.621 in assay [3] (first compound 0.06325 µM). For the same cell line, the relative viability in assay [3] (first compound 0.2 µM) was 0.597; in assay [3] (first compound 0.6325 µM), 0.592; in assay [3] (first compound 2 µM) it was 0.568.

Consider ChaGo-K-1, for which the relative viability came to 0.886 in assay [1] (first compound 0.02 µM); 1.26 in assay [1] (first compound 0.06325 µM); 1.07 in assay [1] (first compound 0.2 µM); 0.665 in assay [1] (first compound 0.6325 µM); 0.621 in assay [1] (first compound 2 µM); 1.05 in assay [2] (first compound 0.02 µM). Moreover, the relative viability in assay [2] (first compound 0.06325 µM) worked out at 1.65; in assay [2] (first compound 0.2 µM), 1.16; in assay [2] (first compound 0.6325 µM) it was 0.952; in assay [2] (first compound 2 µM), 0.868; in assay [3] (first compound 0.02 µM), 0.385; in assay [3] (first compound 0.06325 µM), 0.351. The relative viability in assay [3] (first compound 0.2 µM) was determined as 0.431; in assay [3] (first compound 0.6325 µM), 0.412; in assay [3] (first compound 2 µM), 0.412; in the assay with BGJ398 + Dasatinib (first compound 0.01 µM) it was 0.598; in the assay with BGJ398 + Dasatinib (first compound 0.03162 µM), 0.582; with BGJ398 + Dasatinib (first compound 0.1 µM), 0.613. Further, the relative viability in the assay with BGJ398 + Dasatinib (first compound 0.3162 µM) was 0.545; with BGJ398 + Dasatinib (first compound 1 µM), 0.627.

In the case of EBC-1, the relative viability came out at 0.407 in assay [1] (first compound 0.02 µM); 0.518 in assay [1] (first compound 0.06325 µM); 0.42 in assay [1] (first compound 0.2 µM); 0.413 in assay [1] (first compound 0.6325 µM); 0.459 in assay [1] (first compound 2 µM); 0.538 in assay [2] (first compound 0.02 µM). The relative viability turned out to be 0.648 in assay [2] (first compound 0.06325 µM); 0.587 in assay [2] (first compound 0.2 µM); 0.546 in assay [2] (first compound 0.6325 µM); 0.816 in assay [2] (first compound 2 µM); 0.626 in assay [3] (first compound 0.02 µM); 0.84 in assay [3] (first compound 0.06325 µM). For the same cell line, the results for the relative viability in assay [3] (first compound 0.2 µM), in assay [3] (first compound 0.6325 µM) and in assay [3] (first compound 2 µM) were 0.754, 0.76 and 0.723, respectively.

Take EKVX: the relative viability in assay [1] (first compound 0.02 µM) came out at 0.355; in assay [1] (first compound 0.06325 µM), 0.384; in assay [1] (first compound 0.2 µM) it was 0.42; in assay [1] (first compound 0.6325 µM), 0.422; in assay [1] (first compound 2 µM) it was 0.375; in assay [2] (first compound 0.02 µM), 0.906. Further, the relative viability is 1.07 in assay [2] (first compound 0.06325 µM); 0.969 in assay [2] (first compound 0.2 µM); 0.911 in assay [2] (first compound 0.6325 µM); 0.871 in assay [2] (first compound 2 µM); 0.668 in assay [3] (first compound 0.02 µM); 0.828 in assay [3] (first compound 0.06325 µM). Moreover, the relative viability in assay [3] (first compound 0.2 µM) was 0.824; in assay [3] (first compound 0.6325 µM), 0.812; in assay [3] (first compound 2 µM), 0.838; with BGJ398 + Dasatinib (first compound 0.01 µM), 0.528; with BGJ398 + Dasatinib (first compound 0.1 µM), 0.807; with BGJ398 + Dasatinib (first compound 0.3162 µM) it was 0.539. In addition, in the assay with BGJ398 + Dasatinib (first compound 1 µM), the relative viability was 0.565.

With EMC-BAC-2, the relative viability came out at 0.431 in assay [1] (first compound 0.02 µM); 0.552 in assay [1] (first compound 0.06325 µM); 0.563 in assay [1] (first compound 0.2 µM); 0.482 in assay [1] (first compound 0.6325 µM); 0.463 in assay [1] (first compound 2 µM); 1.01 in assay [2] (first compound 0.02 µM). Further, the relative viability was 1.2 in assay [2] (first compound 0.06325 µM); 1.02 in assay [2] (first compound 0.2 µM); 0.997 in assay [2] (first compound 0.6325 µM); 0.895 in assay [2] (first compound 2 µM); 0.463 in assay [3] (first compound 0.02 µM); 0.498 in assay [3] (first compound 0.06325 µM). The relative viability in assay [3] (first compound 0.2 µM) worked out at 0.572; in assay [3] (first compound 0.6325 µM), 0.489; in assay [3] (first compound 2 µM) it was 0.39; in the assay with BGJ398 + Dasatinib (first compound 0.01 µM), 0.273; with BGJ398 + Dasatinib (first compound 0.03162 µM) it was 0.337; with BGJ398 + Dasatinib (first compound 0.1 µM), 0.355. In addition, the relative viability stood at 0.36 with BGJ398 + Dasatinib (first compound 0.3162 µM) and 0.314 in the assay with BGJ398 + Dasatinib (first compound 1 µM).

For the cell line EPLC-272H, the relative viability was 0.411 in assay [1] (first compound 0.02 µM); 0.407 in assay [1] (first compound 0.06325 µM); 0.364 in assay [1] (first compound 0.2 µM); 0.297 in assay [1] (first compound 0.6325 µM); 0.153 in assay [1] (first compound 2 µM); 0.8 in assay [2] (first compound 0.02 µM). The relative viability was 1.05 in assay [2] (first compound 0.06325 µM); 0.898 in assay [2] (first compound 0.2 µM); 0.857 in assay [2] (first compound 0.6325 µM); 0.808 in assay [2] (first compound 2 µM); 0.865 in assay [3] (first compound 0.02 µM); 0.64 in assay [3] (first compound 0.06325 µM). In addition, the relative viability in assay [3] (first compound 0.2 µM) is 0.971; in assay [3] (first compound 0.6325 µM), 0.898; in assay [3] (first compound 2 µM), 0.542; with BGJ398 + Dasatinib (first compound 0.01 µM), 0.44; with BGJ398 + Dasatinib (first compound 0.03162 µM), 0.303; with BGJ398 + Dasatinib (first compound 0.1 µM) it was 0.286. Further, the relative viability with BGJ398 + Dasatinib (first compound 0.3162 µM) came out at 0.321; with BGJ398 + Dasatinib (first compound 1 µM) it was 0.32.
